The values below come from PubChem BioAssay (NCI).

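Dose response: 5 concentrations. Exposure: 48 h. Format: 96-well plates. Endpoint: linear interpolation; highest concentration if not reached. TGI: total growth inhibition.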

Assay in all cases: NCI anticancer screen, dose series, 48 h
The subject of experiment [1] is 786-0 renal.
The test system of experiment [2] is ACHN renal.
Experiment [3] relates to HOP-92 NSCLC.
In experiment [4] the test system is EKVX NSCLC.
For experiment [5], the system named is A498 renal.
Experiment [6] deals with DU-145 prostate.
Experiment [7] deals with CCRF-CEM leukemia.
The subject of experiment [8] is COLO 205 colon.
For experiment [9], the system named is UACC-257 melanoma.
For experiment [10], the system named is SNB-19 CNS.

For the molecule `O=[N+]([O-])/C=C(\CS(=O)(=O)c1ccccc1)c1ccc2c(c1)OCO2`, the TGI in experiment [1] is over 100 µM; in experiment [2], over 100 µM; in [3], over 100 µM; in experiment [4], over 100 µM; in experiment [5], 81.2 µM; in experiment [6], over 100 µM. In addition, the TGI in experiment [7] and in [8] was over 100 µM in each case.

`O=[N+]([O-])c1cc2ccc(N(CCO)CCO)nc2nc1N(CCO)CCO`: the TGI in [1], in [2], in experiment [3], in experiment [4], in experiment [9] and in [10] was over 100 µM throughout. In addition, the TGI in experiment [5], in experiment [6], in experiment [7] and in experiment [8] was over 100 µM each time.

Regarding `COC(=O)[C@]1(c2cc3ccccc3[nH]2)CC2CN(C(=O)OCc3ccccc3)C1CC2=O` (stereo partly specified), the TGI was over 100 µM in experiment [1]; 86 µM in [2]; 87.8 µM in [3]; 43.7 µM in [4]; over 100 µM in experiment [9]; over 100 µM in experiment [10]. In addition, the TGI was 42.9 µM in experiment [5], over 100 µM in [6], over 100 µM in [7] and 30.1 µM in experiment [8].

As to `Nn1c(=O)[nH]c2ncn(Cc3ccccc3)c2c1=O`, the TGI in [1], in [2], in [3], in experiment [4], in experiment [9] and in experiment [10] was over 100 µM throughout. Besides, the TGI in experiment [5], in [6], in [7] and in experiment [8] was over 100 µM each time.

For `CCC(CC)(CO)CNc1cc(Cl)nc(N)n1`, the TGI in experiment [1], in experiment [2], in experiment [3], in experiment [4], in [9] and in experiment [5] was over 100 µM throughout. The TGI in [6], in experiment [7] and in [8] was over 100 µM each time.

Turning to `Cc1[nH]c2ccccc2c1/C=N/NC(=O)c1cccc(I)c1`, the TGI in experiment [1] is 45.5 µM; in [2] it was 91.3 µM; in experiment [3], 51.4 µM; in experiment [4] it was 41.9 µM; in [9], 54.5 µM; in experiment [10], over 100 µM. Moreover, the TGI in experiment [5] was 34.6 µM; in experiment [6], 92.5 µM; in experiment [7] it was 63.2 µM; in [8] it was 27 µM.

`Cc1ccc(-c2cc[n+]3c(n2)oc2ccccc23)cc1`: the TGI in experiment [1] was 29.5 µM; in [2], 99.4 µM; in experiment [3], 47.3 µM; in experiment [4], 56.2 µM; in [9], 59.2 µM; in [10], over 100 µM. For the same molecule, the TGI in experiment [5] was 65.4 µM; in [6], over 100 µM; in experiment [7] it was 36.3 µM; in experiment [8] it was 68.5 µM.

Take `CCN(CC)CC1CN=C(N)O1` (stereo unspecified): the TGI in experiment [1], in [2], in experiment [3], in experiment [4], in experiment [9] and in experiment [10] was over 100 µM throughout. In addition, the TGI in experiment [5], in [6], in experiment [7] and in experiment [8] was over 100 µM in each case.

Turning to `CN(C)CCOc1ccc(-c2c(Oc3ccccc3)c(=O)oc3ccccc23)cc1`, the TGI was 20.5 µM in experiment [1]; 24.4 µM in experiment [2]; 32.7 µM in experiment [3]; 27.5 µM in experiment [4]; 19.5 µM in [9]; 20.8 µM in [10]. The TGI in experiment [5] came to 27 µM; in [6], 29.3 µM; in [7], 4.94 µM; in experiment [8] it was 24.7 µM.

`O=C(c1cccnc1)N1N=C(c2ccccc2)CC1(O)c1cc(F)c(Cl)cc1Cl` (stereo unspecified): the TGI in experiment [1] was 53.6 µM; in [2], 58.5 µM; in [3] it was 59.5 µM; in [4], over 100 µM; in experiment [9], 39.7 µM; in experiment [10], over 100 µM. Besides, the figures for the TGI in experiment [6], in experiment [7] and in experiment [8] were over 100 µM, over 100 µM and 31 µM, respectively.

As to `O=C(CN1CCCCC1)Nc1ccc2c(c1)C1Oc3ccccc3CC1CO2` (stereo unspecified), the TGI in experiment [1] was 45.8 µM; in experiment [3] it was 54.7 µM; in [4] it was 53.9 µM; in [9] it was 36 µM; in experiment [5] it was 62.8 µM; in experiment [6], over 100 µM. The TGI is over 100 µM in experiment [7] and 26.2 µM in experiment [8].

Take `Cc1ccc(S(=O)(=O)N/N=C2\CC3CC4CCC2C4C3)cc1` (stereo unspecified): the TGI in experiment [1], in [2], in experiment [3], in experiment [4], in experiment [9] and in experiment [5] was over 100 µM throughout. The TGI in experiment [6], in [7] and in [8] was over 100 µM in each case.

Take `CC1(C)C2CCC1C(=O)[C@@]1(C=CC(=O)CC1)C2` (stereo partly specified): the TGI in experiment [1], in experiment [2], in experiment [3], in [4], in experiment [9] and in [10] was over 100 µM each time. For the same molecule, the TGI in [6], in [7] and in [8] was over 100 µM in each case.

As to `CCN(CC)c1ccc(/C=C2\CCc3ccc([N+](=O)[O-])cc3C2=O)cc1`, the TGI was over 100 µM in [1]; over 100 µM in experiment [2]; over 100 µM in [3]; over 100 µM in experiment [4]; over 30.1 µM in experiment [10]; 69.9 µM in [5]. The TGI in experiment [6], in experiment [7] and in experiment [8] was over 100 µM each time.
